The record followed here is US20260207708A1, “THERAPEUTIC USES OF ADIPOSE-SECRETED SIGNALING PROTEIN (ADISSP)” (UNIVERSITY OF MASSACHUSETTS, priority 2023, published 2026).

Like-named read-outs stand apart in the source and are kept apart here.

In data set [1] the test system is Akt. The data set is described as follows: Akt activation in serum-starved brown adipocytes. The settings on record: for blocking of Akt activation by ADISSP: adipocytes pre-treated with inhibitor 2 hr: S961 0.5 μM, Melittin 1 μM, Gallein 5 μM, wortmannin 1 μM, LDC1267 1 μM, then ADISSP 300 nM 30 min. The class given is cell-based. As for the experimental part:
(§1) In some cases adipocytes were pre-treated with inhibitors for 2 hr: S961 (0.5 μM), Melittin (1 μM), Gallein (5 μM), wortmannin (1 μM), and LDC1267 (1 μM).

A further data set deals with euglycemic mice. The class given is in vivo. The note with it: 70 nmole/kg ip, 3 hr after injection. As for the experimental part:
(§2) To explore the mechanism of ADISSP action in vivo, 3-month-old male mice (n=4/group) with euglycemia were intraperitoneally (ip) injected with purified ADISSP protein (70 nmole/kg) at 0 hr. Glucose and insulin levels and Akt activation were measured 3 hr after injection.

Data set [2] concerns DIO mice. Type of data set: in vivo. The settings on record: 71 nmole/kg per day ip, one month. As for the experimental part: We next performed a one-month treatment of hyperglycemic DIO mice (n=19-20 DIO mice/group) with purified ADISSP protein. Glucose levels were measured every day at 7:30 am followed by daily intraperitoneal injection of ADISSP (71 nmole/kg per day). […] Hypertriglyceridemia (FIG. 9J) and high level of Aspartate aminotransferase (AST) (indicative of liver damage caused by fatty liver) (FIG. 9K) were normalized as well.

Data set [3] relates to insulin receptor substrate 1 (IRS1). The data set is described as follows: IRS1 activation in serum-starved brown adipocytes. The class given is cell-based. The note with it: ADISSP 300 nM, 30 min. As for the experimental part:
as §1

A further data set deals with tyrosine phosphorylation. The data set is described as follows: Tyrosine phosphorylation in serum-starved brown adipocytes. The settings on record: ADISSP 300 nM, 30 min. The class given is cell-based. As for the experimental part: as §1
The subject of data set [4] is STZ-induced type 1 diabetic mice. The data set is described as follows: High-dose streptozotocin (STZ)-induced type 1 diabetic mice. The note with it: STZ 200 mg/kg single dose, ADISSP 50 nmole/kg ip at 0 hr and 24 h. Type of data set: in vivo, C57BL6 mice. As for the experimental part:
(§3) The effects of ADISSP protein administration on blood glucose and polyuria were evaluated in streptozotocin (STZ)-induced type 1 diabetic mice. A single dose (200 mg/kg) of STZ was ip injected into C57BL6 mice. Eight days post injection, as expected, high-dose STZ caused extremely severe type 1 diabetes with ad libitum glucose level (>600 mg/dL) exceeding the upper limit of the glucose meter. The mice were ip injected with ADISSP protein (50 nmole/kg) or vehicle at 0 hr and 24 h. After each injection, mice were fasted for 6 hours before glucose measurement so the glucose level in the vehicle group would fall below 600 mg/dL. […] We were not able to continue the experiment because the mice were not healthy due to the high dose of STZ. To account for this, a low dose (50 mg/kg) of STZ was injected daily from Day 1 to Day 5 to produce healthy, type 1 diabetes mice. From Day 13, glucose was measured at 7:30 am followed by ip injection of ADISSP protein (70 nmole/kg) or vehicle once a day at 8 am for two weeks. At Day 13, glucose was measured after 2 hour fasting, all other time points were measured at ad libitum state.

For data set [5], the system named is ob/ob mice. Description: ob/ob mice, single dose then once every 48 hours. Type of data set: in vivo. The protocol:
The effects of injection of purified ADISSP protein were evaluated on hyperglycemia, hyperinsulinemia, and liver steatosis in ob/ob mice (6 male and 9 female mice in control group and 5 male and 10 female mice in treatment group), which were used as a type 2 diabetic mouse model. The mice were injected intraperitoneally with vehicle or a single dose of purified ADISSP protein (50 nmole/kg). Glucose was monitored for 46 hours. Note, no food was provided in the first 8 hours. […] The glucose-lowering effect of ADISSP protein was not due to any difference of food intake, as there was no food provided in the first 8 hours. 46 hours post the first injection, ob/ob mice were injected with ADISSP (50 nmole/kg) once every 48 hour at 8 am (arrow). Mice were fed ad libitum.

The test system of data set [6] is Akt. Description: Akt activation in adipose tissue in vivo after single ip dose. The settings on record: 70 nmole/kg ip, 3 hr after injection. Further details: species or system mice. As for the experimental part: as §2
The next data set concerns GAN diet NASH mice. Description: Gubra Amylin NASH (GAN) diet mice: NASH and cardiac hypertrophy. The class given is in vivo, C57BL6J mice. An excerpt:
To examine the potential effects of Adissp protein on NASH, we fed wild-type male C57BL6J mice with the Gubra Amylin NASH (GAN) diet (Research Diets, D09100310) for 32 weeks to induce a NASH phenotype resembling human NASH. We then treated these mice with Adissp (113 nmole/kg per day) or vehicle. […] At Day 16 of the treatment, a sub-group of mice were sacrificed and NASH phenotype was examined. […] Thus, treatment with Adissp protein rapidly resolved the NASH phenotype.
The remaining mice were continuously treated with 63 nmole/kg per day Adissp protein or vehicle for 31 days.

Data set [7] concerns ob/ob mice. The class given is in vivo. As for the experimental part:
To evaluate longer-term effects of treatment with ADISSP, 12-week ob/ob mice (6 male and 8 female mice in control group and 8 male and 8 female mice in treatment group) were used. Glucose levels were measured at 7 am daily. Vehicle or ADISSP protein (62.6 nmole/kg per day) was ip injected once a day at 8 am for 30 days. […] In addition, after one-month treatment of ob/ob mice with ADISSP protein, bone density was examined by X-Ray. […] Instead, a slight increase was observed, as shown in the region in the box in FIG. 7G. Loss of bone density is associated with FGF21 and diabetes drug TZDs.

The next data set relates to Glut4. Description: Glut4 trafficking to the plasma membrane in Myc-Glut4-GFP transfected adipocytes. The settings on record: adipocytes serum-starved overnight, treated 30 min; for Glut4 localization to the plasma membrane: Myc staining without permeabilization. The class given is cell-based. As for the experimental part:
To evaluate effects of ADISSP on Glut4 trafficking to the plasma membrane, adipocytes were transfected with a Myc-Glut4-GFP plasmid, in which Myc and GFP were fused to the extracellular and intracellular regions of Glut4, respectively. The Adipocytes were serum-starved overnight, and then treated with purified ADISSP protein or insulin for 30 min. The adipocytes were fixed without permeabilization, and stained with Myc antibody and DAPI. […] 95% of GFP-positive cells were also Myc-positive after either ADISSP or insulin treatment, while very few GFP-positive cells were Myc-positive in control samples.

The subject of data set [8] is DIO mice. Description: Two-week treatment of high fat-induced obese (DIO) mice. Type of data set: in vivo. The settings on record: 65 nmole/kg ip once a day, 14 injections. The protocol:
In the experiment shown in FIGS. 7A-G, all daily glucose levels were measured 24-hr post ADISSP injection. A much stronger glucose reduction would have been observed if measured at earlier time points, e.g., at 6-hr or 12-hr following protein injection. […] Male mice (n=19 mice/group) were fed a high fat diet for 20 weeks to render them obese and hyperglycemia. Mice were then ip injected with ADISSP protein (65 nmole/kg) once a day at 8 am for a total of 14 injections. Glucose levels at ad libitum state were measured at 7:30 am, […]. Insulin levels and livers were examined.

For data set [9], the system named is STZ-induced type 1 diabetic mice. Description: Low-dose streptozotocin (STZ)-induced type 1 diabetic mice. Type of data set: in vivo. The settings on record: STZ 50 mg/kg daily Day 1 to Day 5. The protocol: as §3
[10] abbreviates: 113 nmole/kg per day, Day 16 of treatment.
[11] abbreviates: 62.6 nmole/kg per day ip, 30 days.

Turning to `O=C1OC2(c3ccccc31)c1ccc(O)c(O)c1Oc1c2ccc(O)c1O` [Gallein], the “blocking of Akt activation by ADISSP” value in the data set on Akt [1] is listed as “not blocked”.

`CCOc1cn(-c2ccc(F)cc2C)nc1C(=O)Nc1ccc(Oc2ccnc3cc(OC)c(OC)cc23)c(F)c1` [LDC1267]: the “blocking of Akt activation by ADISSP” value in the data set on Akt [1] is recorded as “blocks”.

`CC[C@H](C)[C@H](NC(=O)CN)C(=O)NCC(=O)N[C@@H](C)C(=O)N[C@H](C(=O)N[C@@H](CC(C)C)C(=O)N[C@@H](CCCCN)C(=O)N[C@H](C(=O)N[C@@H](CC(C)C)C(=O)N[C@H](C(=O)N[C@H](C(=O)NCC(=O)N[C@@H](CC(C)C)C(=O)N1CCC[C@H]1C(=O)N[C@@H](C)C(=O)N[C@@H](CC(C)C)C(=O)N[C@H](C(=O)N[C@@H](CO)C(=O)N[C@@H](Cc1c[nH]c2ccccc12)C(=O)N[C@H](C(=O)N[C@@H](CCCCN)C(=O)N[C@@H](CCCNC(=N)N)C(=O)N[C@@H](CCCCN)C(=O)N[C@@H](CCCNC(=N)N)C(=O)N[C@@H](CCC(N)=O)C(=O)N[C@@H](CCC(N)=O)C(N)=O)[C@@H](C)CC)[C@@H](C)CC)[C@@H](C)O)[C@@H](C)O)C(C)C)C(C)C` [Melittin]: in the data set with Akt [1], the “blocking of Akt activation by ADISSP” value is on record as “not blocked”.

Turning to “ADISSP: recombinant adipose-secreted signaling protein with C-terminal His-tag, purified from medium of transfected Expi293F cells”, the insulin secretion entry in the data set on euglycemic mice is reported as “did not stimulate insulin secretion”. Besides, the blood glucose level entry with euglycemic mice (3-month-old male mice) is on record as “lowers blood glucose level”. Also, in the data set on DIO mice [2], the “Aspartate aminotransferase (AST) level” value is recorded as “normalized”, the body weight entry is listed as “decreased body weight”, the fat mass result is recorded as “reduction of fat mass” and the fatty liver result was “completely reversed fatty liver”. Further, in the data set with DIO mice [2], the glucose tolerance entry is “markedly improved”, the “hyperglycemia (daily glucose levels)” value is listed as “completely normalized hyperglycemia”, the “hypertriglyceridemia (serum triglycerides)” value is listed as “normalized” and the insulin sensitivity result is “markedly improved”. Further, in the data set on DIO mice [2], the lean mass entry is “but not lean mass”, the liver weight entry is listed as “normalized liver weight” and the surface body temperature entry is “higher surface body temperature”. The “activation of insulin receptor substrate 1 (IRS1)” value in [3] was “did not activate”. The tyrosine phosphorylation result in the data set on tyrosine phosphorylation is on record as “induces a bulk of tyrosine phosphorylation”. For the same molecule, in data set [4], the polyuria result is recorded as “improvement in polyuria”. Also, the “decrease of glucose levels” value in [4] (6 hours fasted after each injection) is recorded as 41-48%. In addition, the Akt activation entry in the data set with Akt [1] (serum-starved brown adipocytes, ADISSP 300 nM, 30 min) is on record as “activates Akt independently of insulin receptor”. Further, in the data set with ob/ob mice [5] (50 nmole/kg once every 48 hour), the “duration of glucose-lowering effect after each subsequent injection” value is “at least 48 hours” and the hyperinsulinemia result is “improvement in hyperinsulinemia”. Besides, the “glucose lowered on average” value in the data set with ob/ob mice [5] (50 nmole/kg once every 48 hour, fed ad libitum) is listed as 83.5 mg/dL. Further, in the data set with ob/ob mice [5] (50 nmole/kg once every 48 hour, liver colour and histology), the liver steatosis entry is “improved”. Moreover, in the data set with ob/ob mice [5] (injection once every 48 hours), the hyperglycemia result is given as “sufficient to normalize hyperglycemia”. In the data set on ob/ob mice [5] (post injection), the “onset of glucose lowering” value is listed as “two”. Besides, in the data set with ob/ob mice [5] (single dose 50 nmole/kg ip), the “duration of glucose-lowering effect of a single dose” value is given as “more than 20 hours”. The “Akt activation in vivo (BAT, iWAT, eWAT)” value in the data set on Akt [6] is recorded as “activated Akt in vivo”. For the same molecule, in the data set with GAN diet NASH mice (setting [10]), the “fibrosis (Sirius Red staining)” value is listed as “greatly alleviated”; the “hepatomegaly (liver size and weight)” value is recorded as “ameliorated”; the inflammation result was “ameliorated”; the steatosis entry is listed as “ameliorated”. The “hyperglycemia (blood glucose)” value in the data set on GAN diet NASH mice (GAN diet 32 weeks, 113 nmole/kg per day) was “normalized hyperglycemia”. For the same molecule, the “cardiac hypertrophy (heart weight and size)” value in the data set with GAN diet NASH mice (remaining mice continued at 63 nmole/kg per day for 31 days) is given as “resolved high fat diet-induced cardiac hypertrophy”. In addition, in the data set with ob/ob mice [7] (setting [11]), the body weight gain entry was “reduced body weight gain”, the glucose tolerance result is recorded as “improved glucose tolerance”, the insulin sensitivity entry is on record as “improved” and the liver steatosis result was “ameliorated liver steatosis”. For the same molecule, the “hyperglycemia (daily glucose levels)” value with ob/ob mice [7] (62.6 nmole/kg per day ip, 30 days, glucose measured 24-hr post injection) was “normalized hyperglycemia”. In addition, in the data set on ob/ob mice [7] (mouse, in vivo), the “bone density by X-Ray” value is reported as “did not see decreased bone density. Instead, a slight increase was observed”. In the data set with Glut4, the “GFP-positive cells also Myc-positive” value is on record as 95% and the “Glut4 localization to the plasma membrane” value was “induced Glut4 localization to the plasma membrane”. In the data set with DIO mice [8], the fatty liver result is “amelioration of fatty liver”, the hyperinsulinemia result was “reduced hyperinsulinemia” and the liver weight entry is given as “reduction of liver weight”. Further, in the data set with DIO mice [8] (ad libitum, 6 hr, 12 hr and 24 hr from injection), the daily glucose levels result is reported as “clear improvement in daily glucose levels”. In addition, the polyuria entry in [9] (ADISSP 70 nmole/kg ip once a day for two weeks) is given as “improved polyuria”. Also, the blood glucose result in data set [9] (ADISSP 70 nmole/kg ip once a day for two weeks from Day 13) was “markedly lowered blood glucose”.

For insulin [reference compound], in the data set on Glut4, the “GFP-positive cells also Myc-positive” value was determined as 95% and the “Glut4 localization to the plasma membrane” value is “induced Glut4 localization to the plasma membrane”.
